Columns and labels:
Assay type in all cases: in vivo
[1] = system: maternally separated mice; assay: Contextual fear conditioning in early-life stress mice; conditions: early-life stressed mice
Experimental: At postnatal day 1, pups were culled to have 6 pups per mother. From postnatal day 1 to 14, unpredictable maternal separation (MS) of a period of 3 hours daily was carried out. Maternal separation was performed at random times (from 8 am to 2 pm) to avoid the habituation of the mother to the procedure. The protocol consisted of removing pups from their mother to another cage at room temperature for a 3 hour period, after which the pups were returned to their original nest. These groups are denoted as early-life stress in the figures. A control group of dam/pups was left undisturbed and is denoted in the figures as normal.
One week after maternal separation mice were separated into two groups. […]
Contextual fear conditioning was used to determine the effects of the ellagitannin punicalagin on the susceptibility of adult animals, subjected to early life stress, to anxiety. […] Animal behavior was monitored every 2 seconds throughout the duration of the experiment. The period that mice spent immobile in the chamber was considered as “freezing” and was scored throughout these periods. The time the mice spent immobile after the first shock was recorded for a 60 second period and expressed as a percentage. […]

[2] = system: normal mice; assay: Treadmill endurance test in normal mice; conditions: 55 mg/kg/day in food, 6 weeks of treatment (FIG. 49)
Experimental: Normal 8-week-old mice were acclimated for 2 weeks prior to the start of the study. Mice were fed with a standard rodent diet (chow diet) or a diet containing urolithin A mixed with the food to reach a dosing of 55 mg/kg/day delivered to the mice. Following 6 weeks of treatment, mice were tested for their muscle performance by means of an endurance test.
An endurance test was performed using a variable speed belt treadmill enclosed in a plexiglass chamber with a stimulus device consisting of a shock grid attached to the rear of the belt (Panlab, Barcelona, Spain). Mice were run at 10 cm/sec and a 0° of incline for 5 min. Speed was then incremented by 2 cm/sec every 5 min, until mice were exhausted. The distance run and the number of shocks obtained over 5 min intervals were recorded. Mice were considered exhausted and removed from the experiment when they received approximately 20 shocks in a period of 1 min. Control untreated and urolithin A-treated mice were tested and compared for their performance.
Improved muscle performance and endurance is reflected by an ability to run at higher speeds on the treadmill. Mice will seek to avoid the shock and will run despite the increasing speed. At a certain point the mice are unable to keep up with the treadmill speed and are shocked. After reaching the threshold levels of shocks, mice are removed from the treadmill. […]

[3] = system: aged C. elegans (wild-type Bristol N2); assay: Oxygen consumption (Seahorse XF24) in aged C. elegans; conditions: 10-day-old worms, 30 μM urolithin A in 0.1% DMSO, 30 minute period (FIGS. 25A, 25B)
Experimental: C. elegans strains were cultured at 20° C. on nematode growth media (NGM) agar plates seeded with E. coli strain OP50. Strain used was wild-type Bristol N2 provided by the Caenorhabditis Genetics Center (University of Minnesota). Urolithin A was dissolved in DMSO. Animals were exposed to compounds from eggs on plates seeded with live OP50 bacteria. Control plates were prepared with the corresponding concentration of DMSO (0.1%).
Measurement of oxygen consumption is a direct indicator of mitochondrial activity. The effect of urolithin A on mitochondrial activity in aged C. elegans (10 days old) was assessed by treating C. elegans with urolithin A for 10 days of adulthood, at which time oxygen consumption was measured using the Seahorse XF24 equipment (Seahorse Bioscience Inc., North Billerica, Mass.). 250 ten-day-old C. elegans were used per condition. […] Worms were transferred into 24-well standard Seahorse plates (#100777-004) (50 worms per well) and oxygen consumption was measured. The basal oxygen consumption of the worms was first measured over 30 minutes at 5 minute intervals (0 min, 5 min, 15 min, 20 min, 25 min and 30 min) with 5 replicates per interval. Respiration rates were normalized to the exact number of worms per well determined after the completion of the experiment using a stereomicroscope. […]

Row | Structure (SMILES) | freezing time after the first foot shock (anxiety level) ([1]; 90 mg/kg/day in food, 60 second period (FIG. 42)) | extinction of contextual recall (freezing as percent of day 1) ([1]; 90 mg/kg/day, 12 days, reduced freezing between days 8 and 12 (FIG. 43)) | muscle performance and endurance, treadmill speed [2] | uncoupled (FCCP) respiration, oxygen consumption AUC [3]
1 | O=C1O[C@H]2[C@@H]3OC(=O)c4cc(O)c(O)c(O)c4-c4c(O)c(O)c5oc(=O)c6c(c(O)c(O)c7oc(=O)c4c5c76)-c4c(cc(O)c(O)c4O)C(=O)OC[C@H]3OC(O)[C@@H]2OC(=O)c2cc(O)c(O)c(O)c2-c2c1cc(O)c(O)c2O (mixture of isomers) [punicalagin, 2,3 hexahydroxydiphenoyl-4,6-gallagylglucose] | decreased and normalized these elevated anxiety levels | faster extinction than untreated early-life stressed mice |  | 
2 | O=c1oc2cc(O)ccc2c2ccc(O)cc12 [urolithin A, 3,8-Dihydroxydibenzo-α-pyrone] |  |  | ran at higher speeds than untreated control mice | significantly increased uncoupled respiration

Source: patent US11234960B2, “Compositions and methods for improving mitochondrial function and treating neurodegenerative diseases and cognitive disorders” (Amazentis SA, priority 2010, dated 2022)
